Assay results reported in the supplement of paper PMC9005190.

Tests used:
[1] = target: GPR183 (UniProt P32249); test: Emax (maximal agonist-induced change in ebBRET relative to vehicle) (% of vehicle response (amplitude of change)); higher = larger response (for Gs, larger decrease in membrane ebBRET, i.e. stronger Gs activation)
[2] = target: GPR183 (UniProt P32249); test: pEC50 of agonist-induced pathway activation (ebBRET)
[3] = target: LPA1 (UniProt Q92633); test: as above
[4] = target: T1, EP1 (UniProt P34995); test: as above
T1 sequence (whole entry): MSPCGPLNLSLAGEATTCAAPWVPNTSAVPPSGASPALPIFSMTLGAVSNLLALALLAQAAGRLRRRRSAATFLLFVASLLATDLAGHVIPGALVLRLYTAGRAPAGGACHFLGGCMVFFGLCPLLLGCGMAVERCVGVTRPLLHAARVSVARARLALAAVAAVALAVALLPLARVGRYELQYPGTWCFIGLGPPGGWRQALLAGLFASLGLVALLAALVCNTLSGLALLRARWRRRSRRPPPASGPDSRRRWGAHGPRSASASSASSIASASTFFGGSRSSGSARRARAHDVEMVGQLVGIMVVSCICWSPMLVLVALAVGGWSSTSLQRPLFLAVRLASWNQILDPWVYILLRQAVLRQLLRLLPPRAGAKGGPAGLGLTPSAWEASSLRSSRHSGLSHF

[5] = target: PAR2 (UniProt P55085); test: Emax (maximal agonist-induced change in ebBRET relative to vehicle) (% of vehicle response (amplitude of change)); higher = larger response (for Gs, larger decrease in membrane ebBRET, i.e. stronger Gs activation)
[6] = target: PAR2 (UniProt P55085); test: pEC50 of agonist-induced pathway activation (ebBRET)
[7] = target: S1P1 (UniProt P21453); test: Emax (maximal agonist-induced change in ebBRET relative to vehicle) (% of vehicle response (amplitude of change)); higher = larger response (for Gs, larger decrease in membrane ebBRET, i.e. stronger Gs activation)
[8] = target: S1P1 (UniProt P21453); test: pEC50 of agonist-induced pathway activation (ebBRET)
[9] = pathway (G protein / arrestin sensor): G12
[10] = pathway (G protein / arrestin sensor): G15
[11] = pathway (G protein / arrestin sensor): Gi1
[12] = pathway (G protein / arrestin sensor): Gi2
[13] = pathway (G protein / arrestin sensor): GoA
[14] = pathway (G protein / arrestin sensor): GoB
[15] = pathway (G protein / arrestin sensor): Gz
[16] = pathway (G protein / arrestin sensor): βarr1/GRK2
[17] = pathway (G protein / arrestin sensor): βarr2
[18] = pathway (G protein / arrestin sensor): βarr2/GRK2
[19] = pathway (G protein / arrestin sensor): G11
[20] = pathway (G protein / arrestin sensor): G13
[21] = pathway (G protein / arrestin sensor): G14
[22] = pathway (G protein / arrestin sensor): Gq

PAR2, sequence (P55085 whole entry): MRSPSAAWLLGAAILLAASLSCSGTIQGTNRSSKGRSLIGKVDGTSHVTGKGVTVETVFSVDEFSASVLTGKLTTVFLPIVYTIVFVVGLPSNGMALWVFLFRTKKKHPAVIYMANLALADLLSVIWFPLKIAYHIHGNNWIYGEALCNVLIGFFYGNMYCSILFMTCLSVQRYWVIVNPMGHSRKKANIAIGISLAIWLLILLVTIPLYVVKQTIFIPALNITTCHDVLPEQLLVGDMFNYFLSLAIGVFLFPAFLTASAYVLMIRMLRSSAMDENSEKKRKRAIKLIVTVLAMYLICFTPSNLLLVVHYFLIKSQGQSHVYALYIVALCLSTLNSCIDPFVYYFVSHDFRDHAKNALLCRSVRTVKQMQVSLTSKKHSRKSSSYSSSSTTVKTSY
S1P1, sequence (P21453 whole entry): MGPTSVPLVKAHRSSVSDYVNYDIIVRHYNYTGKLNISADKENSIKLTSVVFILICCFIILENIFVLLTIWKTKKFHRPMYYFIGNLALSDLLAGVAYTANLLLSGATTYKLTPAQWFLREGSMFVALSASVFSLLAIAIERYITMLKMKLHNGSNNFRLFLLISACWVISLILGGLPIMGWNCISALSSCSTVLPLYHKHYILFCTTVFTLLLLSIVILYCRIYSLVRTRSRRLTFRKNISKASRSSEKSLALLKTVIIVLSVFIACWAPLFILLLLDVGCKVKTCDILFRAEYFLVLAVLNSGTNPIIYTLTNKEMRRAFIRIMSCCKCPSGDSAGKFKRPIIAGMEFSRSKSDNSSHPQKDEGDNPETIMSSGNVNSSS
LPA1, sequence (Q92633 whole entry): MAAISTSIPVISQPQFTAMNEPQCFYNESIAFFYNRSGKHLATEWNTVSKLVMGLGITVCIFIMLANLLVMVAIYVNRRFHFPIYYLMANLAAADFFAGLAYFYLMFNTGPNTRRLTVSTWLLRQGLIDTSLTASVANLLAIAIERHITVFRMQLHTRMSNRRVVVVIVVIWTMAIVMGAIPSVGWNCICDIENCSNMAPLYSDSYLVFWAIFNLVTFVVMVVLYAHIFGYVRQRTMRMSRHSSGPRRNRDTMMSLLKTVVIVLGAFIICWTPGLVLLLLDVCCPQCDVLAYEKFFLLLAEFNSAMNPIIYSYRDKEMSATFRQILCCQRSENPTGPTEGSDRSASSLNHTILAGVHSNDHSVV
GPR183, sequence (P32249 whole entry): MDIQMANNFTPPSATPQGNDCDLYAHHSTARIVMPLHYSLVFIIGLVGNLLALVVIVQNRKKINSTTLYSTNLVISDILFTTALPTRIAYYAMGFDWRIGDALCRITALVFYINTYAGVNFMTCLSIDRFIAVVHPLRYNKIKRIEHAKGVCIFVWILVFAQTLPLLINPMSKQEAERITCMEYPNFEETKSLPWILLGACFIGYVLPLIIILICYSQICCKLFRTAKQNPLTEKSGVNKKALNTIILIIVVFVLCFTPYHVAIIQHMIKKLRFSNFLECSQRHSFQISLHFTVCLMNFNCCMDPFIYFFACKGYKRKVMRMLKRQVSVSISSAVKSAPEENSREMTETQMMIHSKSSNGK

C[C@H](CCCC(C)(C)O)[C@H]1CC[C@H]2[C@@H]3[C@H](O)C=C4C[C@@H](O)CC[C@]4(C)[C@H]3CC[C@]12C [7α-25 dihydroxycholesterol]
Emax [1, 9]: 53.4
Emax [1, 10]: 38.1
Emax [1, 11]: 134
Emax [1, 12]: 144
Emax [1, 13]: 166
Emax [1, 14]: 190
Emax [1, 15]: 123
Emax [1, 16]: 1120
Emax [1, 17]: 502
Emax [1, 18]: 573
pEC50 [2, 9]: 8.98
pEC50 [2, 10]: 8.51
pEC50 [2, 11]: 9.74
pEC50 [2, 12]: 9.75
pEC50 [2, 13]: 9.16
pEC50 [2, 14]: 9.75
pEC50 [2, 15]: 9.16
pEC50 [2, 16]: 8.95
pEC50 [2, 17]: 8.23
pEC50 [2, 18]: 8.8

CCCCCCCC/C=C\CCCCCCCC(=O)OCC(O)COP(=O)(O)O (centres undefined) [O-LPA]
pEC50 [3, 19]: 6.92
pEC50 [3, 20]: 8.35
pEC50 [3, 21]: 5.63
pEC50 [3, 10]: 6.31
pEC50 [3, 11]: 9.2
pEC50 [3, 13]: 8.89
pEC50 [3, 22]: 7.51
pEC50 [3, 16]: 7.53
pEC50 [3, 17]: 6.58
pEC50 [3, 18]: 7.46

CCCCC[C@H](O)/C=C/[C@H]1[C@H](O)CC(=O)[C@@H]1C/C=C\CCCC(=O)O [PGE2]
pEC50 [4, 19]: 8.27
pEC50 [4, 9]: 9.51
pEC50 [4, 20]: 8.04
pEC50 [4, 21]: 7.95
pEC50 [4, 10]: 9.29
pEC50 [4, 11]: 6.43
pEC50 [4, 12]: 7.37
pEC50 [4, 13]: 8
pEC50 [4, 14]: 7.46
pEC50 [4, 22]: 8.32
pEC50 [4, 17]: 7.41

CC[C@H](C)[C@H](NC(=O)[C@H](CC(C)C)NC(=O)[C@@H](N)CO)C(=O)NCC(=O)N[C@@H](CCCCN)C(=O)N[C@H](C(N)=O)C(C)C [SLIGKV-NH2]
Emax [5, 19]: 483
Emax [5, 9]: 41.5
Emax [5, 20]: 235
Emax [5, 21]: 419
Emax [5, 10]: 498
Emax [5, 11]: 621
Emax [5, 12]: 326
Emax [5, 13]: 217
Emax [5, 14]: 320
Emax [5, 22]: 304
Emax [5, 15]: 188
Emax [5, 16]: 861
Emax [5, 17]: 766
Emax [5, 18]: 489
pEC50 [6, 19]: 5.96
pEC50 [6, 9]: 7.79
pEC50 [6, 20]: 6.87
pEC50 [6, 21]: 5.46
pEC50 [6, 10]: 5.81
pEC50 [6, 11]: 5.32
pEC50 [6, 12]: 5.65
pEC50 [6, 13]: 5.85
pEC50 [6, 14]: 6.32
pEC50 [6, 22]: 5.18
pEC50 [6, 15]: 6.23
pEC50 [6, 16]: 4.65
pEC50 [6, 17]: 4.63
pEC50 [6, 18]: 4.75

CCCCCCCCCCCCC/C=C/[C@@H](O)[C@@H](N)COP(=O)(O)O [Sphingosine 1-phosphate]
Emax [7, 9]: 92
Emax [7, 20]: 175
Emax [7, 10]: 375
Emax [7, 11]: 132
Emax [7, 12]: 99.8
Emax [7, 13]: 68.5
Emax [7, 14]: 59.2
Emax [7, 16]: 477
Emax [7, 17]: 227
Emax [7, 18]: 557
pEC50 [8, 9]: 7.18
pEC50 [8, 20]: 6.86
pEC50 [8, 10]: 6.21
pEC50 [8, 11]: 8.15
pEC50 [8, 12]: 7.95
pEC50 [8, 13]: 7.75
pEC50 [8, 14]: 8.16
pEC50 [8, 16]: 7.27
pEC50 [8, 17]: 6.83
pEC50 [8, 18]: 7.46
